Laboratory results published in ChEMBL document CHEMBL1201862, “PubChem BioAssay data set” (2004).
Activity calls are given as the source filed them.

Key:
[1] = molecular target: T1, Cytochrome P450 1A2 (Homo sapiens, UniProt P05177);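 also: PubChem cytochrome P450 panel assay, CYP1A2 panel member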
T1 sequence (P05177 whole entry): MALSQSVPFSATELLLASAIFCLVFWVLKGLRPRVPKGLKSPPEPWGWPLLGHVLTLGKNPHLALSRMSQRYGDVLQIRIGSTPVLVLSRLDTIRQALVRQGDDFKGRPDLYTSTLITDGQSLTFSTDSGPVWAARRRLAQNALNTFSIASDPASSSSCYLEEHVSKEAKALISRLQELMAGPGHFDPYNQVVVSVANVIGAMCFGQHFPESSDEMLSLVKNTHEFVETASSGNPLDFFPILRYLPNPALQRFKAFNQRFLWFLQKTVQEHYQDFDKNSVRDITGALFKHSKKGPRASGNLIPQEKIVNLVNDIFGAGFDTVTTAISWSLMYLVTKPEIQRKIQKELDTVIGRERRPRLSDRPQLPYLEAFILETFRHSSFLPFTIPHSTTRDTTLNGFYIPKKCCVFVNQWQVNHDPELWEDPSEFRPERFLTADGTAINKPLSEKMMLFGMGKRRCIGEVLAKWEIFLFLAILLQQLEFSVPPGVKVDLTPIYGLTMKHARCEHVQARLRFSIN

[2] = molecular target: Cytochrome P450 2D6 (Homo sapiens, UniProt P10635); test: qHTS Assay for Inhibitors and Substrates of Cytochrome P450 2D6. [Related pubchem assays: 410 ]; type: ADME; settings: read-out: Potency
[3] = molecular target: Transitional endoplasmic reticulum ATPase (Homo sapiens, UniProt P55072, C522A); test: C522A mutant p97 ATPase inhibitors, dose response, counter-screen for p97 inhibitor project, biochemical, luminescence (AID 1544)
[4] = molecular target: Transitional endoplasmic reticulum ATPase (Homo sapiens, UniProt P55072); test: p97 ATPase inhibitors, dose response, biochemical (AID 1534)
[5] = molecular target: Induced myeloid leukemia cell differentiation protein Mcl-1 (Homo sapiens, UniProt Q07820); type: functional
[6] = cells; type: functional, cell-based
[7] = cytotoxicity in HEK-293T cells, dose response, cytotoxicity control for TCR NF-kB inhibitor project, luminescence, T-cell screen hits (AID 489026); type: functional, cell-based;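 also: cells exposed to compound about 14 hours before the viability readout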
[8] = inhibitors of firefly luciferase expression or activity, dose response, H4 neuroglioma cells, luminescence (AID 1990); type: functional, cell-based
[9] = Luminescence Cell-Based Dose Response HTS to Identify Inhibitors of 5'UTR Stem-Loop Driven Prion Protein mRNA Translation in H4 Neuroglioblastoma Cells. [Related pubchem assays: 1827 (Project Summary), 1813 (Primary HTS)]; type: functional
[10] = inhibitors of SNCA 5'UTR-driven reporter translation, confirmation, H4 neuroglioma cells, luminescence (AID 1988); type: functional, cell-based
[11] = inhibitors of SNCA 5'UTR-driven translation, confirmation, luminescence, H4 neuroglioblastoma cells, dose confirmation (AID 2454); type: functional, cell-based;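 also: H4 neuroglioblastoma cells carrying an alpha-synuclein 5'UTR luciferase reporter; potency for inhibition of the luciferase signal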
[12] = luciferase reporter signal reduction – luminescence, H4-C neuroglioblastoma cells, dose response (AID 2458); type: functional, cell-based;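 also: H4 neuroglioblastoma cells stably carrying a luciferase reporter gene fusion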
[13] = molecular target: Serine/threonine-protein phosphatase (Homo sapiens, UniProt Q9BPW0); test: Counterscreen for inhibitors of PP1: fluorescence-based biochemical high throughput dose response assay to identify inhibitors of Protein Phosphatase 5 (PP5). [Related pubchem assays: 2034 (Summary (PP5 inhibitors)), 1987 (PP5 inhibitors in singlate), 2235 (PP1 inhibitors in singlate)]
[14] = molecular target: Serine/threonine-protein phosphatase PP1-alpha catalytic subunit (Homo sapiens, UniProt P62136); test: PP1 phosphatase inhibitors, dose response, biochemical, fluorescence (AID 2403);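 also: phosphatase turnover of OMFP into fluorescent 3-O-methylfluorescein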
[15] = molecular target: Heat shock 70 kDa protein 1A (Homo sapiens, UniProt P0DMV8); test: Hsp70 inhibitors, SAR follow-up, biochemical, fluorescence polarization (AID 1072)
[16] = molecular target: Heat shock cognate 71 kDa protein (Homo sapiens, UniProt P11142); test: In Vitro Hsc70 Dose Response Fluorescence Polarization Assay. [Related pubchem assays: 1072 ]
[17] = molecular target: Glyceraldehyde-3-phosphate dehydrogenase (Homo sapiens, UniProt P04406)
[18] = molecular target: T2, Sentrin-specific protease 7 (Homo sapiens, UniProt Q9BQF6); test: SENP7 protease inhibitors, SAR follow-up, biochemical, luminescence (AID 504497); type: functional
T2 sequence (Q9BQF6 whole entry): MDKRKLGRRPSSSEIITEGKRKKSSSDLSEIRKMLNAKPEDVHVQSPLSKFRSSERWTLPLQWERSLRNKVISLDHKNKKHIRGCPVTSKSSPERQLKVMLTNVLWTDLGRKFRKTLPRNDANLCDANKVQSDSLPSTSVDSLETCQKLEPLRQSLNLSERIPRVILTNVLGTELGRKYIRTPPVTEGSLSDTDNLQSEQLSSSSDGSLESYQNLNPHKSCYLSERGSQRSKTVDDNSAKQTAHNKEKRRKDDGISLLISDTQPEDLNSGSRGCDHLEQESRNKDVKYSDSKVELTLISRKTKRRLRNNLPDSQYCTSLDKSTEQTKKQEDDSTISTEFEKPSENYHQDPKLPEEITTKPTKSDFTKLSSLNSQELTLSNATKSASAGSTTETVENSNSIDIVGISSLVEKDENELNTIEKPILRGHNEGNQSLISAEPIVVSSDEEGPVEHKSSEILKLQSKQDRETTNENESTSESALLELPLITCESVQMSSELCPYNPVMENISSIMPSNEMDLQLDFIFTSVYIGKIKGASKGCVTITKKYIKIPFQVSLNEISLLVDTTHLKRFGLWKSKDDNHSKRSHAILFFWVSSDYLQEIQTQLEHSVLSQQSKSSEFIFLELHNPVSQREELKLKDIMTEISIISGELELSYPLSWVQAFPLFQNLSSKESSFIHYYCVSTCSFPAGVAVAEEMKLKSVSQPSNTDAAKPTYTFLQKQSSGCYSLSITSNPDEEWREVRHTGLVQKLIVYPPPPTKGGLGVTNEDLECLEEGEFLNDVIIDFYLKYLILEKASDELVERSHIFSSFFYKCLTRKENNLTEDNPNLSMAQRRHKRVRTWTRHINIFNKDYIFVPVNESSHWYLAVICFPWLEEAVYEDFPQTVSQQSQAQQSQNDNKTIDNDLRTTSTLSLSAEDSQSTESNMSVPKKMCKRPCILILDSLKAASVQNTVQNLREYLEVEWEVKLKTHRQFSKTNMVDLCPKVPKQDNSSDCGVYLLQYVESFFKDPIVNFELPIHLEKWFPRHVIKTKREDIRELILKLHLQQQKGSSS

[19] = LGR2 antagonists, dose response, cell-based, HEK293, CRE-luciferase reporter, cherry pick, set 2 (AID 743343); type: functional;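 also: transfected cells were stimulated with diluted bursicon conditioned medium after compound addition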
[20] = molecular target: T3, Caspase-3 (Homo sapiens, UniProt P42574); test: SAR Analysis of small molecule inhibitors of Sentrin-specific proteases (SENPs) using a Caspase-3 Selectivity assay. [Related pubchem assays (depositor defined):AID2540, AID2599, AID434973, AID489001]; type: functional
T3 sequence (P42574 whole entry): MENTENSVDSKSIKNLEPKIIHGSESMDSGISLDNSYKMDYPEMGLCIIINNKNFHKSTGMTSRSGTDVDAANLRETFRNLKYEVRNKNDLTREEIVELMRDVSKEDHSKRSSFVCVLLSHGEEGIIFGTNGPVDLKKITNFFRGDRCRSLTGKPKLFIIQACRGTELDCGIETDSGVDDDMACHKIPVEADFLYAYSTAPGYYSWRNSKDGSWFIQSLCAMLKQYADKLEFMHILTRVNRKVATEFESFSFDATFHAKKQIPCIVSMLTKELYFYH

[21] = molecular target: T4, Sentrin-specific protease 6 (Homo sapiens, UniProt Q9GZR1); test: SAR Analysis of small molecule inhibitors of Sentrin-specific protease 6 (SENP6) using a Luminescent assay. [Related pubchem assays (depositor defined):AID2582, AID2599]; type: functional
T4 sequence (Q9GZR1 whole entry): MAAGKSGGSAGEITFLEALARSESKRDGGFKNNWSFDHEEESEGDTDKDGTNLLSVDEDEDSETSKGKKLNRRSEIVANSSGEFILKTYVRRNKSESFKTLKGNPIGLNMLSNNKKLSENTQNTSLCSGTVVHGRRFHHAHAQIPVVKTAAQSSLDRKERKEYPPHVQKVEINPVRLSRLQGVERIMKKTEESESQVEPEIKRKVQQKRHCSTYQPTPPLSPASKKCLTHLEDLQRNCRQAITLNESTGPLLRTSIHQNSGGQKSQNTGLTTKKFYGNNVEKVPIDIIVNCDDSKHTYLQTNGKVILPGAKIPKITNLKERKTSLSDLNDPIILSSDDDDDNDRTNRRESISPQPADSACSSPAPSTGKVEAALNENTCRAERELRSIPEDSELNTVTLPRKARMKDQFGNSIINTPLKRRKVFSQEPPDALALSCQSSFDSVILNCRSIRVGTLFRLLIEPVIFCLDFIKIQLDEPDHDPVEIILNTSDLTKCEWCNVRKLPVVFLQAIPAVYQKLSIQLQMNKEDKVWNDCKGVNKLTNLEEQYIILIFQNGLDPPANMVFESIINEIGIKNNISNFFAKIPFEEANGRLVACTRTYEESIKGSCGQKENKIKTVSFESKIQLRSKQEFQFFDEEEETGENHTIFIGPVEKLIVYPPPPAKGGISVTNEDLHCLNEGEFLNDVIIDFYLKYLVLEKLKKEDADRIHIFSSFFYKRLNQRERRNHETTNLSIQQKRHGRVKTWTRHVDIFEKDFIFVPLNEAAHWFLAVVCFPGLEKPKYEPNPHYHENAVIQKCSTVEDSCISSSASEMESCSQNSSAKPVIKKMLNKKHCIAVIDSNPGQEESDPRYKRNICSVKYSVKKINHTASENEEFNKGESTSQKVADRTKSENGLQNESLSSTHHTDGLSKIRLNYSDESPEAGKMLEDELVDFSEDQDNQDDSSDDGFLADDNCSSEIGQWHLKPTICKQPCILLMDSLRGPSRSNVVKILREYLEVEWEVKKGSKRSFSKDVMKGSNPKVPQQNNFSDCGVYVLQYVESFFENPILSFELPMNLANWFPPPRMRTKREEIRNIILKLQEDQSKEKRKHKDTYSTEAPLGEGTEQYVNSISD

[22] = molecular target: T5, Rac GTPase-activating protein 1 (Homo sapiens, UniProt Q9H0H5); test: MgcRacGAP GTPase-activating activity inhibitors, confirmation, biochemical, ADP Hunter fluorescence, primary and confirmatory (AID 624330); type: functional
T5 sequence (Q9H0H5 whole entry): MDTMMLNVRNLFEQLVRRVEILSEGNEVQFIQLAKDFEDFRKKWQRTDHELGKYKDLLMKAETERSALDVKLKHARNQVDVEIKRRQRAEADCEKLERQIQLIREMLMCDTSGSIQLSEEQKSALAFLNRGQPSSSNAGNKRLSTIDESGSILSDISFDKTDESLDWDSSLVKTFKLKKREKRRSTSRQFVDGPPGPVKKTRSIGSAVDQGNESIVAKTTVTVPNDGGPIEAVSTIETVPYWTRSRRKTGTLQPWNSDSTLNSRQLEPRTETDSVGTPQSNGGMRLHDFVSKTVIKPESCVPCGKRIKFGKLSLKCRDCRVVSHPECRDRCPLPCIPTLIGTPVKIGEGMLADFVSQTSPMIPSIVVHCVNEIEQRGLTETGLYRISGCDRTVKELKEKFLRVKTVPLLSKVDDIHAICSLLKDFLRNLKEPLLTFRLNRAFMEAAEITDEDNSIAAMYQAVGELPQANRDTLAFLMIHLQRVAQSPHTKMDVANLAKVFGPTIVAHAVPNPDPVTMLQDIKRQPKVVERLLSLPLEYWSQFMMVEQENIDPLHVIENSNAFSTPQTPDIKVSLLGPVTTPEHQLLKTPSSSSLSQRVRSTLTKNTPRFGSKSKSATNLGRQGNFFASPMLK

[23] = molecular target: T6, Sentrin-specific protease 8 (Homo sapiens, UniProt Q96LD8); test: SENP8 protease inhibitors, SAR follow-up, biochemical, luminescence (AID 504501); type: functional
T6 sequence (Q96LD8 whole entry): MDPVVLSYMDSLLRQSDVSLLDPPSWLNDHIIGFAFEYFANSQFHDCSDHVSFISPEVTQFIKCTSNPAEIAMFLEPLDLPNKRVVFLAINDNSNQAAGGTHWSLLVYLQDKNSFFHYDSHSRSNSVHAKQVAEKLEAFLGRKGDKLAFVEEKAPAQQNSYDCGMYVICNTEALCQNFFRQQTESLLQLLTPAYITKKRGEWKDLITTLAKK

[24] = MC4R antagonists, dose response, counter-screen for LGR2 antagonist project, cell-based, plate reader, cherry pick (AID 743444); type: functional;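 also: transfected HEK 293 cells stimulated with alpha-MSH peptide; potency of inhibitors of the alpha-MSH evoked signal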
[25] = HepG2 cell cytotoxicity, dose response, cytotoxicity control, plate reader, cherry-pick, antagonist series (AID 743416); type: functional, cell-based
[26] = Luminescence-based counterscreen assay for KLF5 inhibitors: dose response cell-based high throughput screening assay to identify cytotoxic compounds using the IEC-6 intestinal epithelial cell line. [Related pubchem assays: 1700 (Primary screen.), 1834 (Confirmation screen.), 1858 (Summary AID.), 1905 (Counterscreen.)]; type: functional

Chain of Induced myeloid leukemia cell differentiation protein Mcl-1 (Q07820 whole entry): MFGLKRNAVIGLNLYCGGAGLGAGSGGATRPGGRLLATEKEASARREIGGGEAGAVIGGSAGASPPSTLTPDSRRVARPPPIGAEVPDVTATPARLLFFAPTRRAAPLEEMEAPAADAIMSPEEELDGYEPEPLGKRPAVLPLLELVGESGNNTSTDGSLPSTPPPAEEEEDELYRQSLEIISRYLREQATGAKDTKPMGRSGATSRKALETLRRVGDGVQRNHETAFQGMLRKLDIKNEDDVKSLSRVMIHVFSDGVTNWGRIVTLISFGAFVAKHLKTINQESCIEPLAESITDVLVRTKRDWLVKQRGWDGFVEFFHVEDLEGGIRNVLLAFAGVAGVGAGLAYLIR
Chain of Serine/threonine-protein phosphatase (Q9BPW0 whole entry): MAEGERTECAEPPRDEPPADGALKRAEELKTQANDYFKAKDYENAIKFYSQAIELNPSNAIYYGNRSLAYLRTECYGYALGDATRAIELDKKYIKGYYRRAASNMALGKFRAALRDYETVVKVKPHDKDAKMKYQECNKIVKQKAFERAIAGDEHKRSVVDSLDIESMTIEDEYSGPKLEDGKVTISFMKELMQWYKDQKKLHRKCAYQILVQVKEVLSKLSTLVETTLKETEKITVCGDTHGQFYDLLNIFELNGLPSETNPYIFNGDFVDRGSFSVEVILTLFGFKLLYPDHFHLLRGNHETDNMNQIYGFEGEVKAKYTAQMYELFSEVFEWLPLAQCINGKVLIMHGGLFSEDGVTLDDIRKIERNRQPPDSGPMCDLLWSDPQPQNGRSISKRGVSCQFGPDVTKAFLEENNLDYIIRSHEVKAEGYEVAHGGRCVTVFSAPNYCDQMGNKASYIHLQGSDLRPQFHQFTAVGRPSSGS
Chain of Cytochrome P450 2D6 (P10635 whole entry): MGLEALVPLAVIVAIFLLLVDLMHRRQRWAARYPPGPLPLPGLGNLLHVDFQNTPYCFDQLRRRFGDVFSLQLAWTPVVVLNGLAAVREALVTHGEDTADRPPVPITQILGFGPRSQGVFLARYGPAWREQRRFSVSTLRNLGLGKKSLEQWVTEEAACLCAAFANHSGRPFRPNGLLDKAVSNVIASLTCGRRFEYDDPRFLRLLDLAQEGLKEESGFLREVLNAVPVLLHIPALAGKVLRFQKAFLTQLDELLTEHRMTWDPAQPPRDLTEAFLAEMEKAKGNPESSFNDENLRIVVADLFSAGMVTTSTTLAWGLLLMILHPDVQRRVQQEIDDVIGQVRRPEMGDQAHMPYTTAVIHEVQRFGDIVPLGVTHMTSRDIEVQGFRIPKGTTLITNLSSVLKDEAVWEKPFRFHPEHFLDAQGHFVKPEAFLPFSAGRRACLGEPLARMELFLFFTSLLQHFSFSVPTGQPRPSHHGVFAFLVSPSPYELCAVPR
Chain of Transitional endoplasmic reticulum ATPase (Homo sapiens, UniProt P55072, C522A) (P55072 2-806 C522A limits assumed): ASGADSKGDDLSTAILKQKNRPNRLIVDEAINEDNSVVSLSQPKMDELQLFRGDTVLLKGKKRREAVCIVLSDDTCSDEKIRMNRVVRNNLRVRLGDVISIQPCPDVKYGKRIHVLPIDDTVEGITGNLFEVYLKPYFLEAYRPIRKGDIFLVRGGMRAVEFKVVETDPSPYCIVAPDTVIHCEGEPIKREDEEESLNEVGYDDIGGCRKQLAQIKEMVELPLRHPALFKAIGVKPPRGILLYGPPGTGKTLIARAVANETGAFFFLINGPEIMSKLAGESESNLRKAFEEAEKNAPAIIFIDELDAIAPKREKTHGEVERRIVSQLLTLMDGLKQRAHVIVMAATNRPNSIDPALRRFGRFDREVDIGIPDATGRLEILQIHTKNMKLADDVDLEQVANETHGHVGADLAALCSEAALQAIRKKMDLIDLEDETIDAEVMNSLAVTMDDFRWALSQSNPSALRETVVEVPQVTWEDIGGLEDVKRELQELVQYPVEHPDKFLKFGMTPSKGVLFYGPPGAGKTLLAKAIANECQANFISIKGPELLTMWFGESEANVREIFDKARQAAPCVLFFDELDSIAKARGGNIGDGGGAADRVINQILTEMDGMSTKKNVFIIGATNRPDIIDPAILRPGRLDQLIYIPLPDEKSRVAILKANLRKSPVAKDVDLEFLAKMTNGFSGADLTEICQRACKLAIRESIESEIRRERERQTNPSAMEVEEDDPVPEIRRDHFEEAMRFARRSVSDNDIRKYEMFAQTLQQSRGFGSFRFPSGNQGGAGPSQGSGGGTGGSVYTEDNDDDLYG
Chain of Heat shock 70 kDa protein 1A (P0DMV8 whole entry): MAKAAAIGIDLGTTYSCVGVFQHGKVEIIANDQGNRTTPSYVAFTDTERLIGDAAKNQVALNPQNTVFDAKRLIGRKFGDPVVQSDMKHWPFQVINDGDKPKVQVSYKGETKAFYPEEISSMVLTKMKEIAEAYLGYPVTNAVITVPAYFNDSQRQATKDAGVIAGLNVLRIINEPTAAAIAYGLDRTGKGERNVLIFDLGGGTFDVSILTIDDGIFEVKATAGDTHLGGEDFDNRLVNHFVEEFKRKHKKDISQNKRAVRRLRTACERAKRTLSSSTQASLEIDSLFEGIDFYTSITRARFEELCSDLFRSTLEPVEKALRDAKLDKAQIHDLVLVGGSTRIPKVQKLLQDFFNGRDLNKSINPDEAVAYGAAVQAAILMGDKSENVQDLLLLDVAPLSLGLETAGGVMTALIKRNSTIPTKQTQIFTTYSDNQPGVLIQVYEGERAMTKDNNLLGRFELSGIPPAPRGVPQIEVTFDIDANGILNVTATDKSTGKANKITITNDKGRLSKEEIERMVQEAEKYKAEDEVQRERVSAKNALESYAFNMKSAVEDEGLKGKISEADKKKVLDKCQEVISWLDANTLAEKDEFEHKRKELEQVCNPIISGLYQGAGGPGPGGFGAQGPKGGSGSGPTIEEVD
Chain of Transitional endoplasmic reticulum ATPase (Homo sapiens, UniProt P55072) (P55072 whole entry): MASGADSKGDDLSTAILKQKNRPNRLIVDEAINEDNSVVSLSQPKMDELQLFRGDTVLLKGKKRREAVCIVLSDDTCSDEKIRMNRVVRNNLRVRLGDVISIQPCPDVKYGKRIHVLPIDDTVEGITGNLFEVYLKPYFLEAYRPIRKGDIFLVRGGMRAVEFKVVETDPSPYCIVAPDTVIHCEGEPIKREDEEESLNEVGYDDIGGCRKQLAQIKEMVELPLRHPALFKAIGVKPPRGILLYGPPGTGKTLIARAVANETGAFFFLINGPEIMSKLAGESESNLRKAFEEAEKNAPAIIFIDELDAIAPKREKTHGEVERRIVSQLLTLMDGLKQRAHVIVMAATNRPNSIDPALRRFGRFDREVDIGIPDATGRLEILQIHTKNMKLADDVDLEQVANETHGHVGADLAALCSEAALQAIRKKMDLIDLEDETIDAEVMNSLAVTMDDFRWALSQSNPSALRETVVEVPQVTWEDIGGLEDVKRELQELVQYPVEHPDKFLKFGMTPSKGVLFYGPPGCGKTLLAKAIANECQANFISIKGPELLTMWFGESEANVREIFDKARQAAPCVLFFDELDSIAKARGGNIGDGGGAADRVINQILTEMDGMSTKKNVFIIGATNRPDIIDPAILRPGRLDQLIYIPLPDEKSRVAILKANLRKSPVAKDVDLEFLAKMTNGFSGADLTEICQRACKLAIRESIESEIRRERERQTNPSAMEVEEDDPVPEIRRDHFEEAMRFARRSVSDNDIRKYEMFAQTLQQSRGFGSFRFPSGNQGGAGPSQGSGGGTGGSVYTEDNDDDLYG
Chain of Serine/threonine-protein phosphatase PP1-alpha catalytic subunit (P62136 whole entry): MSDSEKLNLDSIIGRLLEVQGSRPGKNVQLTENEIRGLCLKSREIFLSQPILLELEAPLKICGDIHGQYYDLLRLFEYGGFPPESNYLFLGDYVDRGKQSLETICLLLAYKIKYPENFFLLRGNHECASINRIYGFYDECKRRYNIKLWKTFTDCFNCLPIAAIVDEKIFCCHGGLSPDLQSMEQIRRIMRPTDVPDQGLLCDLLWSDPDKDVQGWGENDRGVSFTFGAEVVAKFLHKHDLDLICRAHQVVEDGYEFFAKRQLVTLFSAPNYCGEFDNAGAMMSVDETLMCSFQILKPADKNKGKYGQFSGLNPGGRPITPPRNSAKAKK
Chain of Glyceraldehyde-3-phosphate dehydrogenase (P04406 whole entry): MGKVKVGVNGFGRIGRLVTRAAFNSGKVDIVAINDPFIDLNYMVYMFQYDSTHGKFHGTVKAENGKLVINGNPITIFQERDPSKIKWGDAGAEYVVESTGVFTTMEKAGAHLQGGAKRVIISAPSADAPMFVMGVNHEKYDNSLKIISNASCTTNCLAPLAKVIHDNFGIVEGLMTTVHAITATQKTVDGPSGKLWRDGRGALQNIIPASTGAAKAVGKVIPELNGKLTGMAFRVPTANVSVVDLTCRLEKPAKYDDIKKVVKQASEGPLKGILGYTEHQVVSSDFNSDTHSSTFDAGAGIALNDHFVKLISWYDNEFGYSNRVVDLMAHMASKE
Chain of Heat shock cognate 71 kDa protein (P11142 whole entry): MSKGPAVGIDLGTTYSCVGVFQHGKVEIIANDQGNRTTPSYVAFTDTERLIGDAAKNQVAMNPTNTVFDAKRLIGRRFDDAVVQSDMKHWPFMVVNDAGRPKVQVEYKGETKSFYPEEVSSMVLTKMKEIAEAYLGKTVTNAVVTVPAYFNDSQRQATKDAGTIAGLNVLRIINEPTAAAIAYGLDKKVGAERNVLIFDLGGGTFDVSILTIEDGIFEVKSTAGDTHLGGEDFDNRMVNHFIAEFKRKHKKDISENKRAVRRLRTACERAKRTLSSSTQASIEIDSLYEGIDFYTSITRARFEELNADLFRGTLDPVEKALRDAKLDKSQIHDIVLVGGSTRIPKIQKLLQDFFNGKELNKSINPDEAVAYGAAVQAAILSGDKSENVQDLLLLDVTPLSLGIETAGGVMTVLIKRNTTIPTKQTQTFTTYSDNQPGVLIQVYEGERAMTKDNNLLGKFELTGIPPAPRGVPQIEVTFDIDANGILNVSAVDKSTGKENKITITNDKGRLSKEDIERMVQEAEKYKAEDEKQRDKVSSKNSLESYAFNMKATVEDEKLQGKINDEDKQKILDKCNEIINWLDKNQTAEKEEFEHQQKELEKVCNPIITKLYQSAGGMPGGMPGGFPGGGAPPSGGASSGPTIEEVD

CCOC(=O)C1=C(C)NC(C)=C(C(=O)OC)[C@H]1c1cccc([N+](=O)[O-])c1 [(R)-NITRENDIPINE]
AC50 [1]: 31.6 µM (inconclusive) | AC50 [2]: 10 µM (inconclusive)

Cc1cc2c(C(C)C)c(O)c(O)c(C=O)c2c(O)c1-c1c(C)cc2c(C(C)C)c(O)c(O)c(C=O)c2c1O
IC50 [3]: 15.5 µM (not active) | IC50 [4]: 5.39 µM (active) | IC50 [5]: 1.36 µM (active)

CCOc1cccc(-c2nnc3n2N=C(c2cc(OC)ccc2OC)CS3)c1
EC50 [6]: > 12 µM (not active) | IC50 [7]: > 80 µM (inactive) | EC50 [8]: 10.5 µM (active) | EC50 [9]: 13.1 µM (active) | EC50 [10]: < 0.1 µM (active) | EC50 [11]: 9.53 µM (active) | EC50 [12]: > 12 µM (not active)

COc1cnc(-c2ccccn2)nc1Oc1cccc(C(F)(F)F)c1
IC50 [13]: > 67 µM (not active) | IC50 [14]: 7.79 µM (active)

COc1ccc(NC(=O)C(=O)O)cc1
IC50 [15]: > 100 µM (not active) | IC50 [16]: > 100 µM (not active) | IC50 [17]: > 100 µM (not active)

O=C(O)c1ccc(N/N=C/c2c[nH]c3ccccc23)cc1
IC50 [18]: 0.985 µM (active) | AC50 [19]: 2.15 µM (active) | IC50 [20]: 0.906 µM (active) | IC50 [21]: 0.869 µM (active) | IC50 [22]: 47.7 µM (active) | IC50 [23]: 0.794 µM (active) | AC50 [24]: 2.25 µM (active) | AC50 [25]: > 52 µM (inactive) | IC50 [26]: > 39.8 µM (not active)
